# Source: US7344884B2, “Peptides promoting cell adherence, growth and secretion” (Becton, Dickinson and Company, priority 2001, dated 2008)
# “Also recorded” adds a separate entry of the source. Marks after values point to notes of the source that are not given here.
# System: PDGF secretion by CHO cells producing rPDGF (CRL 9359/CRL9360)
# Assay: Sandwich ELISA for PDGF in supernatant of CHO cells cultured with test peptide
# Format: cell-based, Chinese Hamster
# Settings: 6 mM peptide in 1A media; day 12 or sooner; 1A media post-culture value subtracted
# Experimental: To identify peptides in a particular library which positively affected cell expression and secretion, each test peptide was added to a well containing a monolayer of chinese hamster ovary cells. The selected cells were anchorage-dependent CHO cells known to secrete platelet derived growth factor, which were initially grown on the tissue culture surfaces using a media with serum. After the monolayer was established, a chemically defined base media and a single test peptide were added to each well. In the present work, secretion of PDGF was assessed in the presence and absence of peptides from the library by collecting supernatant from each well and performing an ELISA specific for PDGF on the supernatant. The output was the absorbance at 492 nm. Secretion was evaluated in a basal medium rich in amino acids, the necessary vitamins, metals, carbon source and concensus CHO culture factors. PDGF levels were compared to known standards spiked into the media used for culture.
# CHO cells are the most widely used animal cell lines in the field of biotechnology for the production of therapeutically important pharmaceuticals (Martin et al, REVIEW, J. of Biotechnology. Progress 1998 14, 807-833). The Chinese Hamster Ovary Cell Lines producing rPDGF (CRL 9359/CRL9360) were obtained from the American Type Culture Collection, 12301 Parklawn Drive, Rockville, Md. 20852. The depositor was Amgen Inc. of Thousand Oaks, Calif. Further details about the cell lines and expressed products can be found in U.S. Pat. No. 5,175,255.
# Cells were propagated in DMEM/FI2 media with 5% serum at 37° C. between 5-7% CO2. Passages were limited to 5 prior to seeding and PDGF expression was monitored by western blot and ELISA. Cells were routinely seeded at a density of approximately 1×10^4 cells per 20 ml culture media that was placed in a 250 ml canted neck polystyrene tissue culture treated flask (Becton Dickinson). Cells were cultured to confluency and trypsinized to yield cells for seeding.
# 1A Media was used as a PDGF negative control (pre-culture), to hydrate the 40 ng PDGF standard (pre-culture), to hydrate test peptides (pre-culture) and to normalize all other test and control PDGF results (post-culture). The 1A media was prepared by adding the following components to a 500 ml bottle of DMEM/F12 (GIBCO cat. No. 11330-032): 2.5 ml of a 10 mM NEAA stock (GIBCO Catalog 11140-050); 10 ml of a 200 mM L-glutamine stock (GIBCO Catalog 25030-08); 1 ml of a 50 mg/ml gentamycin sulfate stock (GIBCO Catalog 15750-0601); 150 μl of a 100 μM methotrexate Stock (Sigma Catalog M8407); 0.5 ml of a 7.5 mg/ml insulin Stock (Sigma I-6634); 50 μl of a 1 mg/ml insulin-like growth factor-stock (Long R3 Factor, Sigma Catalog No. I-1271); 2.5 grams of bovine serum albumin (Sigma Catalog No. A-7906); and 0.5 ml of a 7.5 mg/ml holo-transferrin stock (Sigma T-1283).
# The CHO model cell lines are adherent cultures that have never been adapted to a serum-free environment. Accordingly, media containing serum was used to seed wells. Two formats, Overlay (O) and Wash (W) were used to introduce media containing test peptides to adhered cells.
# In the O-Format, compounds were gently added on top of the seeding media on the second day. In the O-Format, 9360 cells were seeded at 1,000 cells per 96 well in a 125 μl volume of 1A media with 1.5% serum. 1A media (−serum) containing 12 mM of test peptide was overlaid 2 days later for a final peptide concentration of 6 mM and 0.75% serum. Cell culture supernatant was collected from each test environment on day 10 for later PDGF assay.
# In the W-Format, compounds were added on day 2 or 3 after the seeding media was removed. In the W-Format, 9359 and 9360 cells were seeded at 6,000 cells per 96 well in a 250 μl volume of DMEM/F12 with 5% serum. Three days later, the seeding media was removed and replaced with 250 μl of 1A media (−serum) containing 6 mM test peptide. Cell culture supernatant was collected on days 5 and 12 for later PDGF assay. […]
Substance,"Normalized Abs at 492 nm (relative PDGF level), MDL-400 Library","Normalized Abs at 492 nm (relative PDGF level), Follow-Up Library"
44 (KKPTT; Synthetic peptide selected for biological activity) [Peptide 44],0.31,–
46 (FKKMY; Synthetic peptide selected for biological activity) [Peptide 46],0.28,–
16 (FKLVY; Synthetic peptide selected for biological activity) [Peptide 16],1.38,–
51 (AKKKK; Synthetic peptide selected for biological activity) [Peptide 51],0.25,–
31 (FKKKV; Synthetic peptide selected for biological activity) [Peptide 31],0.49,–
34 (HKNQT; Synthetic peptide selected for biological activity) [Peptide 34],0.42,–
27 (KKPQY; Synthetic peptide selected for biological activity) [Peptide 27],0.55,–
43 (DGKKT; Synthetic peptide selected for biological activity) [Peptide 43],0.32,–
AFFFQ (Synthetic peptide selected for biological activity) [SEQ ID NO:12],0.43,–
19 (FKKKQ; Synthetic peptide selected for biological activity) [Peptide 19],0.79,–
60 (AADEG; Synthetic peptide selected for biological activity) [Peptide 60],0.45,–
65 (ADELN; Synthetic peptide selected for biological activity) [Peptide 65],0.23,–
38 (EKKKK; Synthetic peptide selected for biological activity) [Peptide 38],0.37,–
50 (DFFHK; Synthetic peptide selected for biological activity) [Peptide 50],0.25,–
63 (HHPST; Synthetic peptide selected for biological activity) [Peptide 63],0.33,–
56 (AKKKT; Synthetic peptide selected for biological activity) [Peptide 56],0.20,–
EEEMY (Synthetic peptide selected for biological activity) [SEQ ID NO:13],–,1.37
22 (FKKKK; Synthetic peptide selected for biological activity) [Peptide 22],0.59,–
58 (HNPPY; Synthetic peptide selected for biological activity) [Peptide 58],0.58,–
37 (EKKQT; Synthetic peptide selected for biological activity) [Peptide 37],0.38,–
30 (KNQTY; Synthetic peptide selected for biological activity) [Peptide 30],0.50,–
53 (AHKKK; Synthetic peptide selected for biological activity) [Peptide 53],0.22,–

# Same assay, conditions: library screening
row,Substance,effect on PDGF expression/accumulation in CHO cells (result in words)
1,FKFIG (Synthetic peptide selected for biological activity) [SEQ ID NO:5],positive
2,KFIFG (Synthetic peptide selected for biological activity) [SEQ ID NO:45],positive

# System: MC3T3 cells
# Assay: Oxygen biosensor assay of adherence and growth of MC3T3 cells on peptide-coated wells
# Format: cell-based, murine
# Settings: 86 hour time point; single peptide, 50 µl of 1 mM stock dried in well; value normalized to the well's initial reading
# Experimental: To identify peptides in a particular library which positively affected cell growth in cell culture, the library was screened in a growth assay. The selected cells were anchorage-dependent MC3T3 cells, which were grown on tissue culture surfaces which had been pre-coated with peptides of the present invention. The screening medium used to evaluate peptides in the library was a low serum medium allowing evaluation of peptide effects with low interference from undefined materials present in the medium. In the present work, growth of MC3T3 cells was assessed in the presence and absence of the peptides in the library which were present in the form of a dried film on a tissue culture substrate. Growth was evaluated in a basal medium rich in amino acids and containing the necessary vitamins, metals and simple carbon source. After an appropriate incubation time, growth of each peptide-supplemented culture is compared to growth of the unsupplemented culture. The extent of growth was evaluated using a Becton Dickinson oxygen sensor to detect oxygen consumption by the cells. The cell number in each well containing a particular peptide was then assessed indirectly with a flurometer which measured fluorescence generated from a fluoroescent dye using band-pass filters of 465 nm for excitation and 590 nm for emission.
# Briefly, the oxygen biosensor is based upon the fluoroscence of ruthenium dye which is quenched in the presence of oxygen. The dye is immobilized within an inert but highly permeable silicone matrix located at the bottom of microtiter wells. […] (Wodnicka, M., Guarino, R. D., Hemperly, J. J. Temmins, M. R., Stitt, D. and Pitner, J. B. (2000) J. of Biomolecular Screening 5:141-152)
# MC3T3-E1 is a clonal line of murine calvaria-derived osteoblast (establishement of a clonal osteogenic Cell Line from Newborn Mouse Calvaria in Jpn J. Oral Biol 23, 899 (1981)).
# MC3T3 cells were maintained in αMEM (GIBCO Catalog No: 12561) supplemented with 2% fetal calf serum (FCS, inactivated) and 100 units or μg/ml of penicillin/streptomycin for one month prior to use. Cells were routinely seeded at a density of approximately 1×10^4 cells per 20 ml culture media which was placed in a 250 ml canted neck polystyrene tissue culture treated flask (Becton Dickinson). Cells were cultured until approximately 2×10^6 cells were obtainable from each flask, which were resuspended in 5 ml of αMEM with 2% FCS for a final cell concentration of about 5×10^4 cells per 150 μl for peptide screening.
# For determining the biological effects of library peptides and appropriate controls on MC3T3 cells, cells (5×10^4/150 μl) were grown in an 96 well oxygen sensor plate treated as described below:
# Peptides for screening were obtained from either a MDL-400 library or an MDL-100 library. Fifty microliters of peptides at a 1 mM stock concentration in phosphate buffered saline were placed in wells of a 96 well oxygen sensor plate and dried in a reverse flow air hood overnight […].
# Vitrogen-collagen-I was obtained from Cohesion (Palo Alto, Calif., Catalog No. FXP-019) and fibronectin was obtained from Sigma (Catalog No. F-0895). All other extracellular matrix (ECM) compounds were obtained from Becton Dickinson Labware, (Bedford, Mass.). Polylysine was obtained from Becton Dickinson Labware and RGDSP-rhodamine was from AnaSpec Inc. (San Jose, Calif.). Extracellular matrix components (ECM) or known peptides were used at the following stock concentrations:
# Twenty-five microliters of stock concentrations of controls and 25 μl of phosphate buffered saline were placed in wells of a 96 well oxygen sensor plate and dried overnight as described above.
# Cells grown on 96 well oxygen sensor plates treated as described above were monitored for growth using a Becton Dickinson oxygen biosensor. Growth was monitored at the following time points: 1 hours, 24 hours, 32 hours, 48 hours and 86 hours. Media was changed every three days. […]
row,Substance,"Abs at 590 nm (relative oxygen consumption), MDL-400 Library"
1,FKFIG (Synthetic peptide selected for biological activity) [SEQ ID NO:5],2.27*

# Same assay, conditions: peptide or control adsorbed to surface; compared with uncoated surface or controls
row,Substance,impact on MC3T3 growth (result in words)
1,FKFIG (Synthetic peptide selected for biological activity) [SEQ ID NO:5],positive; also recorded: significant difference in growth

# Same assay, conditions: peptide or control adsorbed to surface; compared with uncoated surface or controls; listed as FKFIG
row,Substance,impact on MC3T3 growth (result in words)
1,FKFIG (Synthetic peptide selected for biological activity) [SEQ ID NO:5],positive
